The results in this text go back to patent US20260234099A1, “Endocannabinoid ligands and related analogs” (Northeastern University, priority 2023, published 2026).

Test [1] addresses T1, CB1 receptor (Rattus norvegicus, UniProt P20272). As to the kind of experiment: GTPγ-S binding assay, CB1. The format is biochemical. Conditions: class symbols; read-out: EC50 (GTP) CB1 receptor. The method, then:
The activity of some of the disclosed compounds for the CB1 and CB2 receptors was assessed by using the GTPγ-S binding assay (Tables 2,3,4). As used herein the “effect” of the compound on the GTPγ-S assay is represented by the EC50 (GTP) value. […] Med. Chem. Letters 2006, 16(9), 2437 and Griffin, et al., J. Pharmacol. Exp. Ther. 1998, 285(2), 553-560 the content of which is hereby incorporated by reference.
(GTPγS is a poorly hydrolysed GTP analogue; its binding reports G protein activation.)

Test [2] deals with T2, CB2 receptor (Homo sapiens, UniProt P34972). As to the kind of experiment: GTPγ-S binding assay, CB2. The format is biochemical. As to the method: The activity of some of the disclosed compounds for the CB1 and CB2 receptors was assessed by using the GTPγ-S binding assay (Tables 2,3,4). As used herein the “effect” of the compound on the GTPγ-S assay is represented by the EC50 (GTP) value. The lower the EC50 (GTP) value the higher the potency of the compound for the receptor A detailed description of the methods used to test compounds using the GTPγ-S assay is given in Parkkari, et al., Biorg. Med. Chem. Letters 2006, 16(9), 2437 and Griffin, et al., J. Pharmacol. Exp. Ther. 1998, 285(2), 553-560 the content of which is hereby incorporated by reference.

In test [3] the target is CB2 receptor (hCB2) (Homo sapiens, UniProt P34972). Briefly: cAMP assay (inhibition of FSK stimulated cAMP), CB2. It is filed as cell-based. The method, then: FIG. 2A is a graph providing data of the % inhibition of FSK stimulated cAMP for compound 6.1.1 for hCB2.
Further functional characterization of some of the disclosed compounds tested initially for “binding affinity” or for GTPγ-S binding was performed by using the cyclic adenosine monophosphate (cAMP) assay. Key compounds initially characterized functionally using the GTPγ-S assay were also doubly tested using the cAMP assay to unambiguously confirm their functional profiles. The functional potency of the compounds tested using the cyclase assay is also represented by the EC50 (cAMP) value and similarly the lower the EC50 (cAMP) value the higher the potency of the compound for the receptor. A detailed description of the methods used to test compounds using the cAMP assay is given in Yingpeng, et al. J. Med. Chem. (2018) 61, 8639-8657 the content of which is hereby incorporated by reference. The EC50 values (potency of a test compound) of the functional assays may or may not be accompanied by the E(max) value in tables 1-5 (efficacy of the test compound). E(max)/efficacy is the maximum GTP stimulation or cAMP inhibition levels and is presented as the percentage of maximum response evoked by a standard CB1/CB2 full agonist (e.g., CP-55,940) for reference see the paper cited above. If a test compound has an efficacy close to 100% of the standard full agonist, then the test compound is also classified as full agonist.

For test [4], the target named is T1, CB1 receptor. Briefly: CB1 receptor binding affinity (Ki). As to the method:
(§1) Some disclosed compounds were tested for CB1 and CB2 receptor binding affinity (Tables 1, 2, 3, 4, 5). As used herein “binding affinity” is represented by the Ki value. The Ki value is the affinity constant and describes the affinity of the compound for the receptor. […] A detailed description of the methods used to test “binding affinity” of compounds is given in Makriyannis, et al., US 2007/0135388 the content of which is hereby incorporated by reference.

Test [5] addresses T2, CB2 receptor. As to the kind of experiment: CB2 receptor binding affinity (Ki). Details: CB2 receptor Ki; CB2 receptor Ki (PMSF); other: with PMSF. Conditions: read-out: CB2 receptor Ki. The method, then: as §1
Test [6] has as its target CB1 receptor (rCB1) (Rattus norvegicus, UniProt P20272). As to the kind of experiment: cAMP assay (inhibition of FSK stimulated cAMP), CB1. The format is cell-based. The method, then:
Further functional characterization of some of the disclosed compounds tested initially for “binding affinity” or for GTPγ-S binding was performed by using the cyclic adenosine monophosphate (cAMP) assay. […] A detailed description of the methods used to test compounds using the cAMP assay is given in Yingpeng, et al. J. Med. Chem. (2018) 61, 8639-8657 the content of which is hereby incorporated by reference. The EC50 values (potency of a test compound) of the functional assays may or may not be accompanied by the E(max) value in tables 1-5 (efficacy of the test compound). E(max)/efficacy is the maximum GTP stimulation or cAMP inhibition levels and is presented as the percentage of maximum response evoked by a standard CB1/CB2 full agonist (e.g., CP-55,940) for reference see the paper cited above.
(cAMP levels reflect the balance of adenylyl cyclase and phosphodiesterase activity.)

For test [7], the target named is T2, CB2 receptor. As to the kind of experiment: hCB2 receptor binding affinity (Ki), Table 7. The method, then:
Some disclosed compounds were tested for CB1 and CB2 receptor binding affinity (Tables 1, 2, 3, 4, 5). As used herein “binding affinity” is represented by the Ki value. The Ki value is the affinity constant and describes the affinity of the compound for the receptor. The lower the Ki value, the higher the affinity of the compound for the receptor. A detailed description of the methods used to test “binding affinity” of compounds is given in Makriyannis, et al., US 2007/0135388 the content of which is hereby incorporated by reference.

Test [8] deals with T2, CB2 receptor. Briefly: CB2 receptor binding affinity (Ki). Details: CB2 receptor Ki. The method, then: as §1
The mark [9] stands for this setting: with PMSF, read-out: CB1 Receptor Ki with PMSF.
Setting [10] is: without PMSF, read-out: CB1 receptor affinity Ki.
Setting [11] is: percentage of maximum response of standard full agonist (e.g., CP-55,940).

Structures are written as SMILES. Like-named read-outs stand apart in the source and are kept apart here. Where only a bound is given, the exact number is not on record here.

T2 sequence (P34972 whole entry): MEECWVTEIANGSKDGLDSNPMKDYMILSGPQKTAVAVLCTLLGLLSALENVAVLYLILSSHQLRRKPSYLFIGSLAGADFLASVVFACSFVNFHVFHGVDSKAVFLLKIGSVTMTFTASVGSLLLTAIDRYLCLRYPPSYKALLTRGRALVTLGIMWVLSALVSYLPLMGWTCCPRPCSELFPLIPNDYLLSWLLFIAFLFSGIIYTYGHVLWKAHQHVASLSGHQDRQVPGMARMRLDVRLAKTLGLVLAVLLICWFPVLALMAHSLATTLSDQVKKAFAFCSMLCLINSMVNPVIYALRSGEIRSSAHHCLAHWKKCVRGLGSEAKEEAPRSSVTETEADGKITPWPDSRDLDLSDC
Sequence of CB2 receptor (hCB2) (P34972 whole entry): as above
Sequence of CB1 receptor (rCB1) (P20272 whole entry): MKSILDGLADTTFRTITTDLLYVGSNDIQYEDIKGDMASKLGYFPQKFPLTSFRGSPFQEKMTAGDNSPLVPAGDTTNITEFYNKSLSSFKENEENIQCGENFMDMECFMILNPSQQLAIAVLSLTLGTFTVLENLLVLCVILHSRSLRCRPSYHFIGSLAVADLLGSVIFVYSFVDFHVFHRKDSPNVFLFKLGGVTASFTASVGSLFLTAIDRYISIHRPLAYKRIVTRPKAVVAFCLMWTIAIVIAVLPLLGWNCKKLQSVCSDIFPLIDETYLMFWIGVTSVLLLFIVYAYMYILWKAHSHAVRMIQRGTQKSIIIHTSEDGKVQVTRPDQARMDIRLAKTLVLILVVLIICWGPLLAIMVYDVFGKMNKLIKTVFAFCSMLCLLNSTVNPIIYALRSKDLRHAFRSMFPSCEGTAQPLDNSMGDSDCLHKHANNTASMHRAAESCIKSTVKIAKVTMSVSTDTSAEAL
T1 sequence (P20272 whole entry): as above

Turning to `CCCCC/C=C\C/C=C\C/C=C\[C@H](C)/C=C\CCCC(=O)OC(CO)CO` [Compound 5.4.3a, 1,3-Dihydroxypropan-2-yl (R,5Z,8Z,11Z,14Z)-7-methylicosa-5,8,11,14-tetraenoate], the EC50 (usually the concentration that produces a half-maximal response) was greater than 1000 nM in test [1] and 200 to 1000 nM in test [2].
As to `CCCCC/C=C\C/C=C\C/C=C\C/C=C\CCCC(=O)OC(CO)CO` [Compound 2-AG, 2-arachidonoylglycerol, reference compound], the EC50 was in the range of 10 to 200 nM in test [3] (class symbols) and 200 to 1000 nM in test [2] (class symbols, read-out: EC50 (GTP) CB2 receptor).
In the case of `CCCCC/C=C\C/C=C\C/C=C\C/C=C\COC(C)C(=O)OC(CO)CO` (centres unmarked) [Compound 5.3.3, 1,3-Dihydroxypropan-2-yl 2-(((2Z,5Z,8Z,11Z)-heptadeca-2,5,8,11-tetraen-1-yl)oxy)propanoate], the EC50 in test [1] was greater than 1000 nM.
`C[C@H](/C=C\C/C=C\C/C=C\CCCC(=O)N[C@H](C)CO)/C=C\CCCCCO[N+](=O)[O-]` [Compound 4.1.5b, (S,6Z,9Z,12Z,15Z)-20-(((R)-1-Hydroxypropan-2-yl)amino)-8-methyl-20-oxoicosa-6,9,12,15-tetraen-1-yl Nitrate]: the “CB1 over CB2 preference” value in test [4] (CB1 vs CB2, Tables 1 and 5) is “bind to and stimulate preferentially the CB1 receptors”. Besides, the values for the Ki in test [4] (setting [9]), in test [4] (setting [10]) and in test [5] were 0.01 to 10 nM, 0.01 to 10 nM and 10 to 200 nM, respectively.
As for `C[C@H](/C=C\C/C=C\C/C=C\CCCC(=O)N[C@H](C)CO)/C=C\CCCCCC#N` [Compound 4.1.5a, (S,5Z,8Z,11Z,14Z)-20-Cyano-N—((R)-1-hydroxypropan-2-yl)-13-methylicosa-5,8,11,14-tetraenamide], the Ki in test [4] (setting [9]), in test [4] (setting [10]) and in test [5] was 0.01 to 10 nM in each case. In addition, the “functional profile at CB1 (cAMP)” value in test [6] (full or partial agonist) is “partial agonist”. In test [6] (numeric), this molecule displayed an EC50 of 8.7 nM. Moreover, in test [6] (setting [11]), the Emax (usually the greatest response seen or fitted, relative to the assay's reference) amounted to 76%.
For the molecule `CCCCC/C=C\C/C=C\C/C=C\C/C=C\C1CC1C(=O)NCCO` (centres unmarked) [Compound 4.2.2a, 2-((1Z,4Z,7Z,10Z)-Hexadeca-1,4,7,10-tetraen-1-yl)-N-(2-hydroxyethyl)cyclopropane-1-carboxamide], the Ki in test [4] (setting [10]) and in test [5] was greater than 1000 nM each time.
As to `C[C@H](/C=C\C/C=C\C/C=C\CCCC(=O)N[C@H](C)CO)/C=C\CCCCCOC1CCCCO1` (some centres unmarked) [Compound 4.1.3], the Ki in test [4] (setting [9]), in test [4] (setting [10]) and in test [5] was greater than 1000 nM in each case.
As to `CCCCC/C=C\C/C=C\C/C=C\C/C=C\C1CC[C@@H](C(=O)OC(CO)CO)C1` (some centres unmarked) [Compound 5.2.2e], the EC50 was 200 to 1000 nM in test [3] (class symbols) and greater than 1000 nM in test [1].
`C[C@H](/C=C\C/C=C\C/C=C\CCCC(=O)N[C@H](C)CO)/C=C\CCCCCF` [Compound 4.7.4, (S,5Z,8Z,11Z,14Z)-20-Fluoro-N—((R)-1-hydroxypropan-2-yl)-13-methylicosa-5,8,11,14-tetraenamide]: the Ki (commonly the equilibrium dissociation constant of an inhibitor or competing ligand from its target) in test [4] (setting [10]) is 0.01 to 10 nM; in test [5], 10 to 200 nM.
For the molecule `CCCCC/C=C\C/C=C\C/C=C\Cc1ccccc1CCCC(=O)NCCO` [Compound 4.3.4, N-(2-Hydroxyethyl)-4-(2-((2Z,5Z,8Z)-tetradeca-2,5,8-trien-1-yl)phenyl)butanamide], in test [4] (vs AEA, Table 5), the “binding affinity for CB1 receptor compared to endogenous AEA” value is on record as “substantially higher binding affinities”. The Ki in test [4] (setting [9]), in test [4] (setting [10]) and in test [5] was 10 to 200 nM each time.
With `C[C@H](/C=C\C/C=C\C/C=C\CCCC(=O)N[C@H](C)CO)/C=C\CCCCC(F)(F)F` [Compound 4.1.5c], the Ki in test [7] worked out at 3.6 nM. The “fold higher binding affinity for CB2 compared to AM 356” value in test [7] (vs AM 356) is listed as 61 fold. For the same molecule, in test [7] (vs AMG 315), the “fold higher binding affinity for CB2 compared to AMG 315” value is on record as 49 fold.
Regarding `CCCCC/C=C\C/C=C\C/C=C\C/C=C\C1CC(C(=O)NCCO)C1` (centres unmarked) [Compound 4.2.2c], the Ki in test [4] (setting [9]) and in test [5] was 200 to 1000 nM throughout.
With `CCCCC/C=C\C/C=C\C/C=C\C/C=C\C1CCC(C(=O)NCCO)CC1` (centres unmarked) [Compound 4.2.2f], the Ki in test [4] (setting [9]) and in test [5] was 200 to 1000 nM throughout.
`CCCCC/C=C\C/C=C\C/C=C\C/C=C\C1CC[C@@H](C(=O)NCCO)C1` (some centres unmarked) [Compound 4.2.2e]: the Ki in test [4] (setting [9]) and in test [5] was 200 to 1000 nM throughout.
On to `CCCCC/C=C\[C@H](C)/C=C\C/C=C\C/C=C\CCCCNC(=O)COC` [Compound 6.1.1, 2-Methoxy-N—((S,5Z,8Z,11Z,14Z)-13-methylicosa-5,8,11,14-tetraen-1-yl)acetamide], for which, in test [3] (full or partial agonist), the “functional profile at CB2 (cAMP)” value was “partial agonist”. This molecule returned an EC50 in test [3] (numeric) of 1.2 nM. In addition, the maximal effect (Emax) in test [3] (setting [11]) worked out at 40%. For the same molecule, the Ki in test [4] (setting [10]) and in test [8] was 0.01 to 10 nM throughout.
Regarding `CCCCC/C=C\C/C=C\C/C=C\[C@@H](C)/C=C\CCCC(=O)OC(CO)CO` [Compound 5.4.3b, 1,3-Dihydroxypropan-2-yl (S,5Z,8Z,11Z,14Z)-7-methylicosa-5,8,11,14-tetraenoate], the EC50 in test [1] and in test [2] was greater than 1000 nM each time.
